Data from ChEMBL document CHEMBL1275510, “Ceftibuten resistance and treatment failure of Neisseria gonorrhoeae infection” (Antimicrob Agents Chemother, 2008).
In brackets after ≈: the same amount, converted by molar mass.

Key:
Neisseria gonorrhoeae [1] = assay: Antimicrobial activity against penicillin-,ofloxacin- and tetracyclin-resistant Neisseria gonorrhoeae multiantigen sequence type 835 isolate 7 harboring penA gene by agar dilution method; format: functional
[2] = Cmax in Neisseria gonorrhoeae infected patient at 400 mg, po; format: ADME, organism-based; parameters: dose 400 mg, route oral; details: human, in vivo
Neisseria gonorrhoeae [3] = assay: Antimicrobial activity against penicillin-,ofloxacin- and tetracyclin-resistant Neisseria gonorrhoeae multiantigen sequence type 835 isolate 9 harboring penA gene by agar dilution method; format: functional
Neisseria gonorrhoeae [4] = assay: Antimicrobial activity against penicillin-,ofloxacin- and tetracyclin-resistant Neisseria gonorrhoeae multiantigen sequence type 835 isolate 10 harboring penA gene by disk diffusion method; format: functional
Neisseria gonorrhoeae [5] = assay: Antimicrobial activity against penicillin-,ofloxacin- and tetracyclin-resistant Neisseria gonorrhoeae multiantigen sequence type 835 isolate 8 harboring penA gene by disk diffusion method; format: functional
Neisseria gonorrhoeae [6] = assay: Antimicrobial activity against penicillin-,ofloxacin- and tetracyclin-resistant Neisseria gonorrhoeae multiantigen sequence type 835 isolate 4 harboring penA gene by disk diffusion method; format: functional
Neisseria gonorrhoeae [7] = assay: Antimicrobial activity against penicillin-,ofloxacin- and tetracyclin resistant Neisseria gonorrhoeae by […]; format: functional
Neisseria gonorrhoeae [8] = assay: Antimicrobial activity against penicillin-,ofloxacin- and tetracyclin-resistant Neisseria gonorrhoeae multiantigen sequence type 835 isolate 5 harboring penA gene by agar dilution method; format: functional
Serum = assay: Protein binding in Neisseria gonorrhoeae infected patient serum at 400 mg, po; format: ADME, organism-based; details: human, in vivo
Neisseria gonorrhoeae [9] = assay: Antimicrobial activity against penicillin-,ofloxacin- and tetracyclin-resistant Neisseria gonorrhoeae multiantigen sequence type 835 isolate 4 harboring penA gene by agar dilution method; format: functional
Neisseria gonorrhoeae [10] = assay: Antimicrobial activity against penicillin-,ofloxacin- and tetracyclin-resistant Neisseria gonorrhoeae multiantigen sequence type 835 isolate 6 harboring penA gene by disk diffusion method; format: functional
Neisseria gonorrhoeae [11] = assay: Antimicrobial activity against penicillin-,ofloxacin- and tetracyclin-resistant Neisseria gonorrhoeae multiantigen sequence type 835 isolate 3 harboring penA gene by agar dilution method; format: functional
Neisseria gonorrhoeae [12] = assay: Antimicrobial activity against penicillin-,ofloxacin- and tetracyclin-resistant Neisseria gonorrhoeae multiantigen sequence type 835 isolate 3 harboring penA gene by disk diffusion method; format: functional
Neisseria gonorrhoeae [13] = assay: Antimicrobial activity against penicillin-,ofloxacin- and tetracyclin-resistant Neisseria gonorrhoeae multiantigen sequence type 2469 isolate 11 harboring penA gene by agar dilution method; format: functional
Neisseria gonorrhoeae [14] = assay: Antimicrobial activity against penicillin-,ofloxacin- and tetracyclin-resistant Neisseria gonorrhoeae multiantigen sequence type 835 isolate 2 harboring penA gene by agar dilution method; format: functional
[15] = Half life in Neisseria gonorrhoeae infected patient at 400 mg, po; format: ADME, organism-based; details: human, in vivo
Neisseria gonorrhoeae [16] = assay: Antimicrobial activity against penicillin-,ofloxacin- and tetracyclin-resistant Neisseria gonorrhoeae multiantigen sequence type 2469 isolate 11 harboring penA gene by disk diffusion method; format: functional
Neisseria gonorrhoeae [17] = assay: Antimicrobial activity against penicillin-,ofloxacin- and tetracyclin-resistant Neisseria gonorrhoeae multiantigen sequence type 835 isolate 1 harboring penA gene by agar dilution method; format: functional
Neisseria gonorrhoeae [18] = assay: Antimicrobial activity against penicillin-,ofloxacin- and tetracyclin-resistant Neisseria gonorrhoeae multiantigen sequence type 835 isolate 6 harboring penA gene by agar dilution method; format: functional
Neisseria gonorrhoeae [19] = assay: Antimicrobial activity against penicillin-,ofloxacin- and tetracyclin resistant penA-negative Neisseria gonorrhoeae by […]; format: functional
Neisseria gonorrhoeae [20] = assay: Antimicrobial activity against penicillin-,ofloxacin- and tetracyclin-resistant Neisseria gonorrhoeae multiantigen sequence type 835 isolate 10 harboring penA gene by agar dilution method; format: functional
Neisseria gonorrhoeae [21] = assay: Antimicrobial activity against penicillin-,ofloxacin- and tetracyclin-resistant Neisseria gonorrhoeae multiantigen sequence type 835 isolate 9 harboring penA gene by disk diffusion method; format: functional
Neisseria gonorrhoeae [22] = assay: Antimicrobial activity against penicillin-,ofloxacin- and tetracyclin-resistant Neisseria gonorrhoeae multiantigen sequence type 835 isolate 7 harboring penA gene by disk diffusion method; format: functional
Neisseria gonorrhoeae [23] = assay: Antimicrobial activity against penicillin-,ofloxacin- and tetracyclin-resistant Neisseria gonorrhoeae multiantigen sequence type 835 isolate 5 harboring penA gene by disk diffusion method; format: functional
Neisseria gonorrhoeae [24] = assay: Antimicrobial activity against penicillin-,ofloxacin- and tetracyclin-resistant Neisseria gonorrhoeae multiantigen sequence type 835 isolate 8 harboring penA gene by agar dilution method; format: functional
Neisseria gonorrhoeae [25] = assay: Antimicrobial activity against penicillin-,ofloxacin- and tetracyclin-resistant Neisseria gonorrhoeae multiantigen sequence type 835 isolate 1 harboring penA gene by disk diffusion method; format: functional
[26] = Oral bioavailability in Neisseria gonorrhoeae infected patient at 400 mg, po; format: ADME, organism-based; details: human, in vivo
Neisseria gonorrhoeae [27] = assay: Antimicrobial activity against penicillin-,ofloxacin- and tetracyclin-resistant Neisseria gonorrhoeae multiantigen sequence type 835 isolate 2 harboring penA gene by disk diffusion method; format: functional
Neisseria gonorrhoeae [28] = assay: Antimicrobial activity against penicillin-,ofloxacin- and tetracyclin-resistant Neisseria gonorrhoeae multiantigen sequence type 835 isolate 1 harboring penA gene by Etest; format: functional
Neisseria gonorrhoeae [29] = assay: Antimicrobial activity against penicillin-,ofloxacin- and tetracyclin-resistant Neisseria gonorrhoeae multiantigen sequence type 835 isolate 4 harboring penA gene by Etest; format: functional
Neisseria gonorrhoeae [30] = assay: Antimicrobial activity against penicillin-,ofloxacin- and tetracyclin-resistant Neisseria gonorrhoeae multiantigen sequence type 835 isolate 10 harboring penA gene by Etest; format: functional
Neisseria gonorrhoeae [31] = assay: Antimicrobial activity against penicillin-,ofloxacin- and tetracyclin-resistant Neisseria gonorrhoeae multiantigen sequence type 835 isolate 6 harboring penA gene by Etest; format: functional
Neisseria gonorrhoeae [32] = assay: Antimicrobial activity against penicillin-,ofloxacin- and tetracyclin-resistant Neisseria gonorrhoeae multiantigen sequence type 835 isolate 8 harboring penA gene by Etest; format: functional
Neisseria gonorrhoeae [33] = assay: Antimicrobial activity against penicillin-,ofloxacin- and tetracyclin-resistant Neisseria gonorrhoeae multiantigen sequence type 835 isolate 3 harboring penA gene by Etest; format: functional
Neisseria gonorrhoeae [34] = assay: Antimicrobial activity against penicillin-,ofloxacin- and tetracyclin-resistant Neisseria gonorrhoeae multiantigen sequence type 835 isolate 5 harboring penA gene by Etest; format: functional
Neisseria gonorrhoeae [35] = assay: Antimicrobial activity against penicillin-,ofloxacin- and tetracyclin-resistant Neisseria gonorrhoeae multiantigen sequence type 835 isolate 9 harboring penA gene by Etest; format: functional
Neisseria gonorrhoeae [36] = assay: Antimicrobial activity against penicillin-,ofloxacin- and tetracyclin-resistant Neisseria gonorrhoeae multiantigen sequence type 835 isolate 2 harboring penA gene by Etest; format: functional
Neisseria gonorrhoeae [37] = assay: Antimicrobial activity against penicillin-,ofloxacin- and tetracyclin-resistant Neisseria gonorrhoeae multiantigen sequence type 835 isolate 7 harboring penA gene by Etest; format: functional
Neisseria gonorrhoeae [38] = assay: Antimicrobial activity against penicillin-,ofloxacin- and tetracyclin-resistant Neisseria gonorrhoeae multiantigen sequence type 2469 isolate 11 harboring penA gene by Etest; format: functional

Question: With Nc1nc(/C(=C/CC(=O)O)C(=O)N[C@@H]2C(=O)N3C(C(=O)O)=CCS[C@H]23)cs1 [CEFTIBUTEN] as the molecule, how does the MIC (Neisseria gonorrhoeae [1]) read?
Answer: 8 µg/mL (≈ 19.5 µM)

Question: And the Cmax [2]?
Answer: 15000 ng/mL

Question: And the MIC (Neisseria gonorrhoeae [3])?
Answer: 8 µg/mL (≈ 19.5 µM)

Question: What about the “diameter of the inhibition zone (DIZ)” value (Neisseria gonorrhoeae [4]) of the same molecule?
Answer: 19 mm

Question: And the “diameter of the inhibition zone (DIZ)” value (Neisseria gonorrhoeae [5])?
Answer: 21 mm

Question: What about the “diameter of the inhibition zone (DIZ)” value (Neisseria gonorrhoeae [6]) of the same molecule?
Answer: 22 mm

Question: What about the “diameter of the inhibition zone (DIZ)” value (Neisseria gonorrhoeae [7]) of the same molecule?
Answer: >=30 mm

Question: What about the MIC (Neisseria gonorrhoeae [8]) of the same molecule?
Answer: 8 µg/mL (≈ 19.5 µM)

Question: What about the Activity (Serum) of the same molecule?
Answer: 65%

Question: What about the MIC (Neisseria gonorrhoeae [9]) of the same molecule?
Answer: 8 µg/mL (≈ 19.5 µM)

Question: And the “diameter of the inhibition zone (DIZ)” value (Neisseria gonorrhoeae [10])?
Answer: 22 mm

Question: What about the MIC (Neisseria gonorrhoeae [11]) of the same molecule?
Answer: 8 µg/mL (≈ 19.5 µM)

Question: What about the “diameter of the inhibition zone (DIZ)” value (Neisseria gonorrhoeae [12]) of the same molecule?
Answer: 25 mm

Question: What about the MIC (Neisseria gonorrhoeae [13]) of the same molecule?
Answer: 8 µg/mL (≈ 19.5 µM)

Question: What about the MIC (Neisseria gonorrhoeae [14]) of the same molecule?
Answer: 8 µg/mL (≈ 19.5 µM)

Question: And the half-life [15]?
Answer: 2.4 h

Question: And the “diameter of the inhibition zone (DIZ)” value (Neisseria gonorrhoeae [16])?
Answer: 23 mm

Question: And the MIC (Neisseria gonorrhoeae [17])?
Answer: 8 µg/mL (≈ 19.5 µM)

Question: And the MIC (Neisseria gonorrhoeae [18])?
Answer: 8 µg/mL (≈ 19.5 µM)

Question: What about the MIC (Neisseria gonorrhoeae [19]) of the same molecule?
Answer: ≤ 1 µg/mL

Question: And the MIC (Neisseria gonorrhoeae [20])?
Answer: 8 µg/mL (≈ 19.5 µM)

Question: And the “diameter of the inhibition zone (DIZ)” value (Neisseria gonorrhoeae [21])?
Answer: 27 mm

Question: And the “diameter of the inhibition zone (DIZ)” value (Neisseria gonorrhoeae [22])?
Answer: 25 mm

Question: And the “diameter of the inhibition zone (DIZ)” value (Neisseria gonorrhoeae [23])?
Answer: 20 mm

Question: And the MIC (Neisseria gonorrhoeae [24])?
Answer: 8 µg/mL (≈ 19.5 µM)

Question: And the “diameter of the inhibition zone (DIZ)” value (Neisseria gonorrhoeae [25])?
Answer: 26 mm

Question: What about the bioavailability [26] of the same molecule?
Answer: 80%

Question: What about the “diameter of the inhibition zone (DIZ)” value (Neisseria gonorrhoeae [27]) of the same molecule?
Answer: 24 mm

Question: Which results are given for CO/N=C(\C(=O)N[C@@H]1C(=O)N2C(C(=O)O)=C(CSc3nc(=O)c(O)nn3C)CS[C@H]12)c1csc(N)n1 [CEFTRIAXONE]?
Answer: MIC (Neisseria gonorrhoeae [28]): 0.064 µg/mL (≈ 0.115 µM); MIC (Neisseria gonorrhoeae [29]): 0.064 µg/mL (≈ 0.115 µM); MIC (Neisseria gonorrhoeae [30]): 0.064 µg/mL (≈ 0.115 µM); MIC (Neisseria gonorrhoeae [31]): 0.064 µg/mL (≈ 0.115 µM); MIC (Neisseria gonorrhoeae [32]): 0.125 µg/mL (≈ 0.225 µM); MIC (Neisseria gonorrhoeae [33]): 0.064 µg/mL (≈ 0.115 µM); MIC (Neisseria gonorrhoeae [34]): 0.064 µg/mL (≈ 0.115 µM); MIC (Neisseria gonorrhoeae [35]): 0.064 µg/mL (≈ 0.115 µM); MIC (Neisseria gonorrhoeae [36]): 0.064 µg/mL (≈ 0.115 µM); MIC (Neisseria gonorrhoeae [37]): 0.064 µg/mL (≈ 0.115 µM); MIC (Neisseria gonorrhoeae [38]): 0.064 µg/mL (≈ 0.115 µM)

Question: Which MIC (Neisseria gonorrhoeae [28]) does the source give for CN[C@@H]1[C@H](O)[C@H](NC)[C@H]2O[C@@]3(O)C(=O)C[C@@H](C)O[C@H]3O[C@@H]2[C@H]1O [SPECTINOMYCIN] here?
Answer: 8 µg/mL (≈ 24.1 µM)

Question: What about the MIC (Neisseria gonorrhoeae [29]) of the same molecule?
Answer: 8 µg/mL (≈ 24.1 µM)

Question: What about the MIC (Neisseria gonorrhoeae [30]) of the same molecule?
Answer: 8 µg/mL (≈ 24.1 µM)

Question: What about the MIC (Neisseria gonorrhoeae [31]) of the same molecule?
Answer: 8 µg/mL (≈ 24.1 µM)

Question: What about the MIC (Neisseria gonorrhoeae [32]) of the same molecule?
Answer: 8 µg/mL (≈ 24.1 µM)

Question: What about the MIC (Neisseria gonorrhoeae [33]) of the same molecule?
Answer: 16 µg/mL (≈ 48.1 µM)

Question: And the MIC (Neisseria gonorrhoeae [34])?
Answer: 8 µg/mL (≈ 24.1 µM)

Question: And the MIC (Neisseria gonorrhoeae [35])?
Answer: 8 µg/mL (≈ 24.1 µM)

Question: What about the MIC (Neisseria gonorrhoeae [36]) of the same molecule?
Answer: 16 µg/mL (≈ 48.1 µM)

Question: And the MIC (Neisseria gonorrhoeae [37])?
Answer: 8 µg/mL (≈ 24.1 µM)

Question: And the MIC (Neisseria gonorrhoeae [38])?
Answer: 8 µg/mL (≈ 24.1 µM)

Question: For C=CC1=C(C(=O)O)N2C(=O)[C@@H](NC(=O)/C(=N\OCC(=O)O)c3csc(N)n3)[C@H]2SC1 [CEFIXIME], which Cmax [2] is on record?
Answer: 3000 ng/mL

Question: And the MIC (Neisseria gonorrhoeae [28])?
Answer: 0.25 µg/mL (≈ 0.551 µM)

Question: What about the MIC (Neisseria gonorrhoeae [29]) of the same molecule?
Answer: 0.25 µg/mL (≈ 0.551 µM)

Question: And the MIC (Neisseria gonorrhoeae [30])?
Answer: 0.25 µg/mL (≈ 0.551 µM)

Question: What about the MIC (Neisseria gonorrhoeae [31]) of the same molecule?
Answer: 0.25 µg/mL (≈ 0.551 µM)

Question: What about the Activity (Serum) of the same molecule?
Answer: 65%

Question: What about the MIC (Neisseria gonorrhoeae [32]) of the same molecule?
Answer: 0.25 µg/mL (≈ 0.551 µM)

Question: And the half-life [15]?
Answer: 3.1 h

Question: What about the MIC (Neisseria gonorrhoeae [33]) of the same molecule?
Answer: 0.25 µg/mL (≈ 0.551 µM)

Question: What about the MIC (Neisseria gonorrhoeae [34]) of the same molecule?
Answer: 0.25 µg/mL (≈ 0.551 µM)

Question: What about the MIC (Neisseria gonorrhoeae [35]) of the same molecule?
Answer: 0.125 µg/mL (≈ 0.276 µM)

Question: And the MIC (Neisseria gonorrhoeae [36])?
Answer: 0.25 µg/mL (≈ 0.551 µM)

Question: And the MIC (Neisseria gonorrhoeae [37])?
Answer: 0.25 µg/mL (≈ 0.551 µM)

Question: What about the MIC (Neisseria gonorrhoeae [38]) of the same molecule?
Answer: 0.125 µg/mL (≈ 0.276 µM)

Question: And the bioavailability [26]?
Answer: 50%
